Results taken from US5859007A, “CCK or gastrin modulating benzo [b][1,4] diazepines derivatives” (Glaxo Wellcome Inc., priority 1994, dated 1999).
Where two headings read alike, the source gives them in different places.

What was measured:
[1] = tested on: isolated guinea pig gallbladder; assay: Functional activity in isolated guinea pig gallbladder preparation; assay type: cell-based; conditions: for activation at 30 µM / activation at 1 µM: Cavia porcellus; for activation at 1 µM: read-out: %Contraction (1 × 10^-6 M)
rat gastric emptying = assay: Rat gastric emptying assay; assay type: in vivo; conditions: intraperitoneally at 0.1 μmoles/kg; vehicle 66
Experimental: 7. RAT GASTRIC EMPTYING PROTOCOL
Methyl Cellulose (MC) Test Meal
1. Disperse MC in water at 80° C. at a final concentration of 1.5% under continuous stirring. Cool to room temperature.
2. Add Phenol Red (50 mg/100) to solution.
3. Keep solution stirring during entire experiment.
1. Food deprive animals for 18 hours.
2. Inject test drug/prop. glycol or prop. glycol alone intraperitoneally.
3. After 5 minutes, gavage 1.5 mL of Pheno Red/MC solution
1. After 20 minutes, decapitate animal
2. Clamp stomach at the pylorus and cardia ends, and rinse in 0.9% NaCl.
3. Place stomach in 100 mL of 0.1N NaOH, cut into small pieces, and homogenize for 30 seconds.
4. Let settle at room temperature for 60 minutes.
5. In centrifuge tube, add 5 mL of supernatant and 0.5 mL of trichloroacetic acid (29% w/v), and centrifuge at 2,800 rpm for 20 minutes.
6. Decant supernatant, and add 4 mL of 0.5N NaOH and read absorbance at a wavelength of 560 nm.
Calculations [formula] The standard stomach is determined from the phenol red recovered in stomachs of rats decapitated immediately after intragastric infusion of MC/phenol red.

[2] = 1 × 10^-6 M test compound, expressed as % CCK-induced maximal response
[3] = 3 × 10^-5 M test compound, expressed as % CCK-induced maximal response, read-out: % Contraction (3 × 10^-5 M)

SMILES: COc1ccc(N(C(=O)CN2C(=O)C(Cc3n[nH]c4ccccc34)C(=O)N(c3ccccc3)c3ccccc32)C(C)C)cc1 (centres unmarked) [Example 31, 2-[3-(1H-Indazol-3-ylmethyl)-2,4-dioxo-5-phenyl-2,3,4,5-tetrahydro-benzo[b][1,4]diazepin-1-yl]-N-isopropyl-N-(4-methoxy-phenyl) acetamide]
- activation at 30 µM ([1]; delivered at 30 μM, read-out: Isolated guinea pig gallbladder: % contraction): 87%
- rat gastric emptying: % emptying (rat gastric emptying): 6%

SMILES: COc1ccc(N(C(=O)CN2C(=O)C(Cc3n[nH]c4ccccc34)C(=O)N(c3ccccc3)c3ccccc32)C2CCCC2)cc1 (centres unmarked) [Example 62, N-Cyclopentyl-2-[3-(1H-indazol-3-ylmethyl)-2,4-dioxo-5-phenyl-2,3,4,5,tetrahydro-benzo[b][1,4]diazepin-1-yl]-N-(4-methoxy-phenyl)-acetamide]
- activation at 1 µM [1, 2]: 96%
- activation at 30 µM [1, 3]: 86%

SMILES: CC(C)N(C(=O)CN1C(=O)C(Cc2n[nH]c3cc(F)ccc23)C(=O)N(c2ccccc2)c2ccccc21)c1ccc(F)cc1 (centres unmarked) [Example 63, 2-[3-(6-Fluoro-1H-indazol-3-ylmethyl)-2,4-dioxo-5-phenyl-2,3,4,5,tetrahydro-benzo[b][1,4]diazepin-1-yl]-N-(4-fluoro-phenyl)-N-isopropyl-acetamide]
- activation at 1 µM [1, 2]: 77%
- activation at 30 µM [1, 3]: 96%

SMILES: CC(=O)n1nc(CC2C(=O)N(CC(=O)N(c3ccc(F)cc3)C(C)C)c3ccccc3N(c3ccccc3)C2=O)c2ccc(F)cc21 (centres unmarked) [Example 64, 2-[3-(1-Acetyl-6-fluoro-1H-indazol-3-ylmethyl)-2,4-dioxo-5-phenyl-2,3,4,5,tetrahydro-benzo[b][1,4]diazepin-1-yl]-N-(4-fluoro-phenyl)-N-isopropyl-acetamide]
- activation at 1 µM [1, 2]: 67%
- activation at 30 µM [1, 3]: 98%

SMILES: CC(C)(C)N(C(=O)CN1C(=O)C(Cc2n[nH]c3ccccc23)C(=O)N(c2ccccc2)c2ccccc21)c1ccccc1 (centres unmarked) [Example 65, N-tert-Butyl-2-[3-(1H-indazol-3-ylmethyl)-2,4-dioxo-5-phenyl-2,3,4,5,tetrahydro-benzo[b][1,4]diazepin-1-yl]-N-phenyl-acetamide]
- activation at 1 µM [1, 2]: 88%
- activation at 30 µM [1, 3]: 93%

SMILES: COc1ccc(N(C(=O)CN2C(=O)C(Cc3n[nH]c4ccccc34)C(=O)N(c3cccnc3)c3cc(F)ccc32)C(C)C)cc1 (centres unmarked) [Example 66, 2-[7-Fluoro-3-(1H-indazol-3-ylmethyl)-2,4-dioxo-5-pyridin-3-yl-2,3,4,5-tetrahydro-benzo[b][1,4]diazepin-1-yl]-N-isopropyl-N-(4-methoxy-phenyl)-acetamide]
- activation at 1 µM [1, 2]: 97%
- activation at 30 µM [1, 3]: 116%

SMILES: COc1ccc(N(C(=O)CN2C(=O)C(Cc3n[nH]c4ccccc34)C(=O)N(c3ccccc3)c3cc(F)c(F)cc32)C(C)C)cc1 (centres unmarked) [Example 67, 2-[7,8-Difluoro-3-(1H-indazol-3-ylmethyl)-2,4-dioxo-5-phenyl-2,3,4,5-tetrahydro-benzo[b][1,4]diazepin-1-yl]-N-isopropyl-N-(4-methoxy-phenyl)-acetamide]
- activation at 1 µM [1, 2]: 78%
- activation at 30 µM [1, 3]: 102%

SMILES: CC(C)N(C(=O)CN1C(=O)C(Cc2n[nH]c3ccccc23)C(=O)N(c2ccccc2)c2ccccc21)c1ccccc1 (centres unmarked) [Example 68, 2-[3-(1H-indazol-3-ylmethyl)-2,4-dioxo-5-phenyl-2,3,4,5-tetrahydro-benzo[b][1,4]diazepin-1-yl]-N-isopropyl-N-phenyl-acetamide]
- activation at 1 µM [1, 2]: 93%
- activation at 30 µM [1, 3]: 99%

SMILES: CC(C)N(C(=O)CN1C(=O)C(Cc2n[nH]c3cc(F)ccc23)C(=O)N(c2ccccc2)c2ccccc21)c1ccccc1 (centres unmarked) [Example 69, 2-[3-(6-Fluoro-1H-indazol-3-ylmethyl)-2,4-dioxo-5-phenyl-2,3,4,5-tetrahydro-benzo[b][1,4]diazepin-1-yl]-N-isopropyl-N-phenyl-acetamide]
- activation at 1 µM [1, 2]: 98%
- activation at 30 µM [1, 3]: 92%

SMILES: CC(C)N(C(=O)CN1C(=O)C(Cc2n[nH]c3cc(F)ccc23)C(=O)N(c2ccccc2)c2ccccc21)c1ccc(OC(F)(F)F)cc1 (centres unmarked) [Example 70, 2-[3-(6-Fluoro-1H-indazol-3-ylmethyl)-2,4-dioxo-5-phenyl-2,3,4,5-tetrahydro-benzo[b][1,4]diazepin-1-yl]-N-isopropyl-N-(4-trifluoromethoxy-phenyl)-acetamide]
- activation at 1 µM [1, 2]: 66%
- activation at 30 µM [1, 3]: 73%

SMILES: COc1ccc(N(C(=O)CN2C(=O)C(Cc3n[nH]c4ccccc34)C(=O)N(c3cccnc3)c3ccccc32)C(C)C)cc1 (centres unmarked) [Example 71, 2-[3-(1H-indazol-3-ylmethyl)-2,4-dioxo-5-pyridin-3-yl-2,3,4,5-tetrahydrobenzo[b][1,4]diazepin-1-yl]-N-isopropyl-N-(4-methoxy-phenyl) acetamide]
- activation at 1 µM [1, 2]: 106%
- activation at 30 µM [1, 3]: 92%

SMILES: COc1ccc(N(C(=O)CN2C(=O)C(C)(Cc3n[nH]c4ccccc34)C(=O)N(c3cccnc3)c3ccccc32)C(C)C)cc1 (centres unmarked) [Example 74, 2-[3-(1H-Indazol-3-ylmethyl)-3-methyl-2,4-dioxo-5-pyridin-3-yl-2,3,4,5-tetrahydro-benzo[b][1,4]diazepin-1-yl]-N-isopropyl-N-(4-methoxy-phenyl)-acetamide]
- activation at 1 µM [1, 2]: 86%
- activation at 30 µM [1, 3]: 88%

SMILES: COc1ccc(N(C(=O)CN2C(=O)C(C)(Cc3n[nH]c4ccccc34)C(=O)N(c3cccnc3)c3ccccc32)C(C)C)cc1 (centres unmarked) [Example 76, 2-[3-(1H-indazol-3-ylmethyl)-3-methyl-2,4-dioxo-5-pyridin-3-yl-2,3,4,5-tetrahydro-benzo[b][1,4]diazepin-1-yl]-N-isopropyl-N-(4-methoxy-phenyl)-acetamide]
- %Contraction (1 × 10^-6 M) [1, 2]: 93%
- % Contraction (3 × 10^-5 M) ([1]; 3 × 10^-5 M test compound, expressed as % CCK-induced maximal response): 95%

SMILES: CC(C)N(C(=O)CN1C(=O)C(Cc2n[nH]c3ccccc23)C(=O)N(c2ccccc2)c2ccccc21)c1ccc2c(c1)OCO2 (centres unmarked) [Example 77, 2-[3-(1H-Indazol-3-ylmethyl)-2,4-dioxo-5-phenyl-2,3,4,5-tetrahydrobenzo[b][1,4]diazepin-1-yl]-N-isopropyl-N-(3,4-methylenedioxy-phenyl) acetamide]
- activation at 1 µM [1, 2]: 78%
- activation at 30 µM [1, 3]: 120%

SMILES: COc1ccccc1N(C(=O)CN1C(=O)C(Cc2n[nH]c3ccccc23)C(=O)N(c2ccccc2)c2ccccc21)C(C)C (centres unmarked) [Example 78, 2-[3-(1H-Indazol-3-ylmethyl)-2,4-dioxo-5-phenyl-2,3,4,5-tetrahydrobenzo[b][1,4]diazepin-1-yl]-N-isopropyl-N-(2-methoxy-phenyl) acetamide]
- activation at 1 µM [1, 2]: 43%

SMILES: COc1cccc(N(C(=O)CN2C(=O)C(Cc3n[nH]c4ccccc34)C(=O)N(c3ccccc3)c3ccccc32)C(C)C)c1 (centres unmarked) [Example 79, 2-[3-(1H-Indazol-3-ylmethyl)-2,4-dioxo-5-phenyl-2,3,4,5-tetrahydrobenzo[b][1,4]diazepin-1-yl]-N-isopropyl-N-(3-methoxy-phenyl) acetamide]
- activation at 1 µM [1, 2]: 92%
- activation at 30 µM [1, 3]: 93%

SMILES: COc1ccc(N(C(=O)CN2C(=O)C(Cc3n[nH]c4ccccc34)C(=O)N(c3ccncc3)c3ccccc32)C(C)C)cc1 (centres unmarked) [Example 80, 2-[3-(1H-Indazol-3-ylmethyl)-2,4-dioxo-5-pyridin-4-yl-2,3,4,5-tetrahydro-benzo[b][1,4]diazepin-1-yl]-N-isopropyl-N-(4-methoxy-phenyl)-acetamide]
- activation at 1 µM [1, 2]: 81%
- activation at 30 µM [1, 3]: 73%

SMILES: COc1ccc(N(C(=O)CN2C(=O)C(Cc3n[nH]c4ccccc34)C(=O)N(c3cccc(F)c3)c3ccccc32)C(C)C)cc1 (centres unmarked) [Example 81, 2-[5-(3-Fluoro-phenyl)-3-(1H-indazol-3-ylmethyl)-2,4-dioxo-2,3,4,5-tetrahydro-benzo[b][1,4]diazepin-1-yl]-N-isopropyl-N-(4-methoxy-phenyl)-acetamide]
- activation at 1 µM [1, 2]: 97%
- activation at 30 µM [1, 3]: 96%

SMILES: COc1ccc(N(C(=O)CN2C(=O)C(COCc3ccccc3)C(=O)N(c3ccccc3)c3ccccc32)C(C)C)cc1 (centres unmarked) [Example 82, 2-[3-(Benzyloxymethyl)-2,4-dioxo-5-phenyl-2,3,4,5-tetrahydro-benzo[b][1,4]diazepin-1-yl]-N-isopropyl-N-(4-methoxy-phenyl)-acetamide]
- activation at 1 µM [1, 2]: 69%
- activation at 30 µM [1, 3]: 89%

SMILES: CC(C)N(C(=O)CN1C(=O)C(Cc2n[nH]c3ccccc23)C(=O)N(c2cccnc2)c2ccccc21)c1ccccc1 (centres unmarked) [Example 83, 2-[3-(1H-Indazol-3-ylmethyl)-2,4-dioxo-5-pyridin-3-yl-2,3,4,5-tetrahydrobenzo[b][1,4]diazepin-1-yl]-N-isopropyl-N-phenyl acetamide]
- activation at 1 µM [1, 2]: 85%
- activation at 30 µM [1, 3]: 97%

SMILES: COc1ccc(N(C(=O)CN2C(=O)C(C)(CC(=O)Nc3ccccc3)C(=O)N(c3cccnc3)c3ccccc32)C(C)C)cc1 (centres unmarked) [Example 84, N-Isopropyl-N-[4-methoxyphenyl]-2-[3-methyl-2,4-dioxo-3-phenylcarbamoylmethyl-5-pyridin-3-yl-2,3,4,5-tetrahydrobenzo[b][1,4]diazepin-1-yl) acetamide]
- activation at 1 µM [1, 2]: 96%
- activation at 30 µM [1, 3]: 96%
